Where two headings read alike, the source gives them in different places.
What was measured:
LasB = target: T1, LasB (Pseudomonas aeruginosa, UniProt P14756); assay: Elastin assay to determine % inhibition (Elastin Congo-Red, dialysed culture supernatant); type: biochemical, P. aeruginosa PAO1; conditions: read-out: Elastin hydrolysis % inhibition @ 50 / 25 µM inhibitor concentration
T1 construct: uses as source of enzyme dialysed supernatant from P. aeruginosa PAO1; endogenous in cells; host or cells: P. aeruginosa PAO1 culture supernatant, filtered and dialysed
T1 sequence (P14756 198-498): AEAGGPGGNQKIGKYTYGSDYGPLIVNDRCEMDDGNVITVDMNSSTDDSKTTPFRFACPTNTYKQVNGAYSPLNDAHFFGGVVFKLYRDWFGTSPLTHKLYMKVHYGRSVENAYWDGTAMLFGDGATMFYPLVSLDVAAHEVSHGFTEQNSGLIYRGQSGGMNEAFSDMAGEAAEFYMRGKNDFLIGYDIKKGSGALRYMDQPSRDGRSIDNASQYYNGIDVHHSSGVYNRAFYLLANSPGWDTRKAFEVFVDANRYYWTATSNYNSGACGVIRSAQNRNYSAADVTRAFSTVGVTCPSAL
In short: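 Enzyme source was dialysed PAO1 culture supernatant (50 mM Tris-HCl pH 7.4, 2.5 mM CaCl2), mixed with Elastin Congo-Red and 0.01% Triton X-100. Compound was routinely 50 to 1.56 µM, incubated overnight at 37 °C with shaking. Dye release at OD495 gave % inhibition relative to DMSO and no-enzyme controls.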

[1] = target: T2, purified LasB protein from P. aeruginosa (Pseudomonas aeruginosa, UniProt P14756); assay: Fluorometric assay to determine Ki (Abz-Ala-Gly-Leu-Ala-p-Nitro-Benzyl-Amide substrate); type: biochemical
T2 construct: purchased Merck or Charles River Laboratories
T2 sequence (P14756 198-498): as above
In short: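 Purified P. aeruginosa LasB (10–140 ng/ml) with 250 µM Abz-Ala-Gly-Leu-Ala-p-nitrobenzylamide in 50 mM Tris-HCl pH 7.4, 2.5 mM CaCl2, 0.01% Triton X100, 37 °C; hydrolysis fluorescence (Ex 340/Em 415 nm) followed over 30 min, inhibitor 0.0016–200 µM. Ki = IC50/(1+[S]/Km), Km 214 µM.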

[2] = Ki calculated from IC50, [S] = 250 µM, Km = 214 µM, 37°C, pH 7.4

Q: Which inhibition at 25 µM (LasB) does the source give for `C[N+]1(CCCOc2ccc(-c3csc(CNC(=O)C4(CC(=O)[O-])Cc5ccccc5C4)n3)cc2S(C)(=O)=O)CCOCC1` [Example 61, 2-[2-[[4-[4-[3-(4-methylmorpholin-4-ium-4-yl)propoxy]-3-methylsulfonyl-phenyl]thiazol-2-yl]methylcarbamoyl]indan-2-yl]acetate] here?
A: Its inhibition at 25 µM is 60 to 75%.

Q: What about the Ki [1] of the same molecule?
A: Its Ki is 50 to 200 nM.

Q: What does the source list for `COc1cc(OCCN2CCN(C(C)=O)CC2)ccc1-c1csc(CNC(=O)C2(CC(=O)O)Cc3ccccc3C2)n1` [Example 88]?
A: inhibition at 25 µM (LasB): > 75%; Ki [1]: < 50 nM

Q: What does the source list for `COc1ccc(-c2csc(CNC(=O)C3(CC(=O)O)Cc4ccccc4C3)n2)cc1S(=O)(=O)N1CCC(N(C)C)CC1` [Example 121, 2-[2-[[4-[3-[[4-(dimethylamino)-1-piperidyl]sulfonyl]-4-methoxy-phenyl]thiazol-2-yl]methylcarbamoyl]indan-2-yl]acetic acid]?
A: inhibition at 25 µM (LasB): 60 to 75%; Ki [1]: 50 to 200 nM

Q: What does the source list for `CN1CCC(C(=O)N2CCN(CCCn3cc(-c4csc(CNC(=O)C5(CC(=O)O)Cc6ccccc6C5)n4)cn3)CC2)CC1` [Example 114, 2-[2-[[4-[1-[3-[4-(1-methylpiperidine-4-carbonyl)piperazin-1-yl]propyl]pyrazol-4-yl]thiazol-2-yl]methylcarbamoyl]indan-2-yl]acetic acid]?
A: inhibition at 25 µM (LasB): 60 to 75%; Ki [1]: 50 to 200 nM

Q: Which results are given for `CN1CCN(S(=O)(=O)c2cccc(-c3csc(CNC(=O)C4(CC(=O)O)Cc5ccccc5C4)n3)c2)CC1` [Example 127, 2-[2-[[4-[3-(4-methylpiperazin-1-yl)sulfonylphenyl]thiazol-2-yl]methylcarbamoyl]indan-2-yl]acetic acid]?
A: inhibition at 25 µM (LasB): > 75%; Ki [1]: 50 to 200 nM

Q: Which results are given for `CN(C)C1CN(c2ccc(-c3csc(CNC(=O)C4(CC(=O)O)Cc5ccccc5C4)n3)cc2)C1` [Example 27]?
A: inhibition at 25 µM (LasB): 60 to 75%; Ki [1, 2]: 50 to 200 nM

Q: For `COc1cc(OCC(=O)N2CC[N+](C)(C)CC2)ccc1-c1csc(CNC(=O)C2(CC(=O)[O-])Cc3ccccc3C2)n1` [Example 79, 2-[2-[[4-[4-[2-(4,4-dimethylpiperazin-4-ium-1-yl)-2-oxo-ethoxy]-2-methoxy-phenyl]thiazol-2-yl]methylcarbamoyl]indan-2-yl]acetate], which inhibition at 25 µM (LasB) is on record?
A: Its inhibition at 25 µM is 60 to 75%.

Q: What about the Ki [1] of the same molecule?
A: Its Ki is 50 to 200 nM.

Q: Which inhibition at 25 µM (LasB) does the source give for `C[n+]1ccc(Cn2cc(-c3csc(CNC(=O)C4(CC(=O)[O-])Cc5ccccc5C4)n3)cn2)cc1` [Example 120, 2-[2-[[4-[1-[(1-methylpyridin-1-ium-4-yl)methyl]pyrazol-4-yl]thiazol-2-yl]methylcarbamoyl]indan-2-yl]acetate] here?
A: The inhibition at 25 µM was 60 to 75%.

Q: And the Ki [1]?
A: The Ki was 50 to 200 nM.

Q: With `COc1cc(OCCC[N+]2(C)CCOCC2)ccc1-c1csc(CNC(=O)C2(CC(=O)[O-])Cc3ccccc3C2)n1` [Example 69, 2-[2-[[4-[2-methoxy-4-[3-(4-methylmorpholin-4-ium-4-yl)propoxy]phenyl]thiazol-2-yl]methylcarbamoyl]indan-2-yl]acetate] as the molecule, how does the inhibition at 25 µM (LasB) read?
A: Its inhibition at 25 µM is 10 to 60%.

Q: What about the Ki [1] of the same molecule?
A: Its Ki is 50 to 200 nM.

Q: What does the source list for `CN1CCN(C(=O)Cn2cc(-c3csc(CNC(=O)C4(CC(=O)O)Cc5ccccc5C4)n3)cn2)CC1` [Example 101]?
A: inhibition at 25 µM (LasB): 60 to 75%; Ki [1, 2]: 200 to 10000 nM

Q: For `COc1cc(OCCCN2CCOCC2)ccc1-c1csc(CNC(=O)C2(CC(=O)O)Cc3ccccc3C2)n1` [Example 71, 2-[2-[[4-[2-methoxy-4-(3-morpholinopropoxy)phenyl]thiazol-2-yl]methylcarbamoyl]indan-2-yl]acetic acid], which inhibition at 25 µM (LasB) is on record?
A: The inhibition at 25 µM was greater than 75%.

Q: And the Ki [1]?
A: The Ki was less than 50 nM.

Q: Which inhibition at 25 µM (LasB) does the source give for `O=C(O)CC1(C(=O)NCc2nc(-c3cnn(CCN4CCOCC4)c3)cs2)Cc2ccccc2C1` [Example 96, 2-[2-[[4-[1-(2-morpholinoethyl)pyrazol-4-yl]thiazol-2-yl]methylcarbamoyl]indan-2-yl]acetic acid] here?
A: The inhibition at 25 µM was 60 to 75%.

Q: What about the Ki [1] of the same molecule?
A: The Ki was 50 to 200 nM.

Q: Which inhibition at 25 µM (LasB) does the source give for `CN1CCN(C(=O)N2CCN(CCCn3cc(-c4csc(CNC(=O)C5(CC(=O)O)Cc6ccccc6C5)n4)cn3)CC2)CC1` [Example 112, 2-[2-[[4-[1-[3-[4-(4-methylpiperazine-1-carbonyl)piperazin-1-yl]propyl]pyrazol-4-yl]thiazol-2-yl]methylcarbamoyl]indan-2-yl]acetic acid] here?
A: Its inhibition at 25 µM is 60 to 75%.

Q: And the Ki [1]?
A: The Ki was 50 to 200 nM.

Q: How did the inhibition at 25 µM (LasB) turn out when `C[N+]1(CCCOc2ccc(-c3csc(CNC(=O)C4(CC(=O)[O-])Cc5cc(F)c(F)cc5C4)n3)cc2S(C)(=O)=O)CCOCC1` [Example 62, 2-[5,6-difluoro-2-[[4-[4-[3-(4-methylmorpholin-4-ium-4-yl)propoxy]-3-methylsulfonyl-phenyl]thiazol-2-yl]methylcarbamoyl]indan-2-yl]acetate] was run?
A: Its inhibition at 25 µM is 60 to 75%.

Q: And the Ki [1]?
A: Its Ki is 50 to 200 nM.

Q: With `CN1CCN(C(=O)Nc2ccc(-c3csc(CNC(=O)C4(CC(=O)O)Cc5ccccc5C4)n3)cc2)CC1` [Example 44, 2-[2-[[4-[4-[(4-methylpiperazine-1-carbonyl)amino]phenyl]thiazol-2-yl]methylcarbamoyl]indan-2-yl]acetic acid] as the molecule, how does the inhibition at 25 µM (LasB) read?
A: The inhibition at 25 µM was 60 to 75%.

Q: What about the Ki [1] of the same molecule?
A: The Ki was 50 to 200 nM.

Q: `CN1CCN(C(=O)CN2CCC(n3cc(-c4csc(CNC(=O)C5(CC(=O)O)Cc6ccccc6C5)n4)cn3)CC2)CC1` [Example 105, 2-[2-[[4-[1-[1-[2-(4-methylpiperazin-1-yl)-2-oxo-ethyl]-4-piperidyl]pyrazol-4-yl]thiazol-2-yl]methylcarbamoyl]indan-2-yl]acetic acid] was tested. Which inhibition at 25 µM (LasB) did it give?
A: Its inhibition at 25 µM is 60 to 75%.

Q: And the Ki [1]?
A: The Ki was 50 to 200 nM.

Q: What does the source list for `O=C(O)CC1(C(=O)NCc2nc(-c3ccc(OCCN4CCOCC4)cc3)cs2)Cc2ccccc2C1` [Example 49, 2-[2-[[4-[4-(2-morpholinoethoxy)phenyl]thiazol-2-yl]methylcarbamoyl]indan-2-yl]acetic acid]?
A: inhibition at 25 µM (LasB): 60 to 75%; Ki [1]: 50 to 200 nM

Q: Which inhibition at 25 µM (LasB) does the source give for `O=C(O)CC1(C(=O)NCc2nc(-c3ccc(OCc4ccncc4)nc3)cs2)Cc2ccccc2C1` [Example 142, 2-[2-[[4-[6-(4-pyridylmethoxy)-3-pyridyl]thiazol-2-yl]methylcarbamoyl]indan-2-yl]acetic acid] here?
A: Its inhibition at 25 µM is greater than 75%.

Q: What about the Ki [1] of the same molecule?
A: The Ki was less than 50 nM.

Q: Which results are given for `O=C(O)CC1(C(=O)NCc2nc(-c3cnn(CCCN4CCOCC4)c3)cs2)Cc2ccccc2C1` [Example 99, 2-[2-[[4-[1-(3-morpholinopropyl)pyrazol-4-yl]thiazol-2-yl]methylcarbamoyl]indan-2-yl]acetic acid]?
A: inhibition at 25 µM (LasB): 60 to 75%; Ki [1]: 50 to 200 nM

Q: What does the source list for `COc1ccc(-c2csc(CNC(=O)C3(CC(=O)O)Cc4cc(F)c(F)cc4C3)n2)cc1S(=O)(=O)N1CCC(N(C)C)CC1` [Example 123, 2-[2-[[4-[3-[[4-(dimethylamino)-1-piperidyl]sulfonyl]-4-methoxy-phenyl]thiazol-2-yl]methylcarbamoyl]-5,6-difluoro-indan-2-yl]acetic acid]?
A: inhibition at 25 µM (LasB): 60 to 75%; Ki [1]: < 50 nM

Q: Which results are given for `CN(C)C1CCN(S(=O)(=O)c2cc(-c3csc(CNC(=O)C4(CC(=O)O)Cc5cc(F)c(F)cc5C4)n3)ccc2OCCN2CCOCC2)CC1` [Example 134, 2-[2-[[4-[3-[[4-(dimethylamino)-1-piperidyl]sulfonyl]-4-(2-morpholinoethoxy)phenyl]thiazol-2-yl]methylcarbamoyl]-5,6-difluoro-indan-2-yl]acetic acid]?
A: inhibition at 25 µM (LasB): 60 to 75%; Ki [1]: 50 to 200 nM

Q: `CN1CCN(c2ccc(-c3csc(CNC(=O)C4(CC(=O)O)Cc5ccccc5C4)n3)cn2)CC1` [Example 34, 2-[2-[[4-[6-(4-methylpiperazin-1-yl)-3-pyridyl]thiazol-2-yl]methylcarbamoyl]indan-2-yl]acetic acid] was tested. Which inhibition at 25 µM (LasB) did it give?
A: The inhibition at 25 µM was 60 to 75%.

Q: What about the Ki [1] of the same molecule?
A: Its Ki is 50 to 200 nM.

Q: What does the source list for `CN1CCN(C(=O)COc2cccc(-c3csc(CNC(=O)C4(CC(=O)O)Cc5ccccc5C4)n3)c2)CC1` [Example 54, 2-[2-[[4-[3-[2-(4-methylpiperazin-1-yl)-2-oxo-ethoxy]phenyl]thiazol-2-yl]methylcarbamoyl]indan-2-yl]acetic acid]?
A: inhibition at 25 µM (LasB): 60 to 75%; Ki [1, 2]: 200 to 10000 nM

Q: Which results are given for `Cn1nccc1-c1csc(CNC(=O)C2(CC(=O)O)Cc3ccccc3C2)n1` [Example 92, 2-[2-[[4-(2-methylpyrazol-3-yl)thiazol-2-yl]methylcarbamoyl]indan-2-yl]acetic acid]?
A: inhibition at 25 µM (LasB): 60 to 75%; Ki [1]: 50 to 200 nM

Q: Which results are given for `CC(=O)N1CCN(CCn2cc(-c3csc(CNC(=O)C4(CC(=O)O)Cc5ccccc5C4)n3)cn2)CC1` [Example 119, 2-[2-[[4-[1-[2-(4-acetylpiperazin-1-yl)ethyl]pyrazol-4-yl]thiazol-2-yl]methylcarbamoyl]indan-2-yl]acetic acid]?
A: inhibition at 25 µM (LasB): 60 to 75%; Ki [1]: 50 to 200 nM

Q: With `CN1CCC(n2cc(-c3csc(CNC(=O)C4(CC(=O)O)Cc5ccccc5C4)n3)cn2)CC1` [Example 102, 2-[2-[[4-[1-(1-methyl-4-piperidyl)pyrazol-4-yl]thiazol-2-yl]methylcarbamoyl]indan-2-yl]acetic acid] as the molecule, how does the inhibition at 25 µM (LasB) read?
A: The inhibition at 25 µM was 60 to 75%.

Q: What about the Ki [1] of the same molecule?
A: The Ki was 200 to 10000 nM.

Q: What does the source list for `COc1cc(N2CCN(C)CC2)ccc1-c1csc(CNC(=O)C2(CC(=O)O)Cc3ccccc3C2)n1` [Example 31, 2-[2-[[4-[2-methoxy-4-(4-methylpiperazin-1-yl)phenyl]thiazol-2-yl]methylcarbamoyl]indan-2-yl]acetic acid]?
A: inhibition at 25 µM (LasB): 60 to 75%; Ki [1]: 50 to 200 nM

Q: Which inhibition at 25 µM (LasB) does the source give for `COC1CCN(CCCn2cc(-c3csc(CNC(=O)C4(CC(=O)O)Cc5ccccc5C4)n3)cn2)CC1` [Example 110, 2-[2-[[4-[1-[3-(4-methoxy-1-piperidyl)propyl]pyrazol-4-yl]thiazol-2-yl]methylcarbamoyl]indan-2-yl]acetic acid] here?
A: Its inhibition at 25 µM is 60 to 75%.

Q: And the Ki [1]?
A: Its Ki is 50 to 200 nM.

Source: patent EP3628672A1 (priority 2018, dated 2020)
